Experiments:
Format in all cases: in vivo
[1] = tested on: Western plant bug (Lygus bug), Lygus hesperus (Knight); experiment: Treated bean piece bioassay against Western plant bug (Lygus bug), synergy by Colby's equation; conditions: Lygus bugs
Text: The method described in Colby S. R., “Calculating Synergistic and Antagonistic Responses of Herbicide Combinations,” Weeds, 1967, 15, 20-22 was used to determine an existence of synergic effect between the nAChR allosteric activator compound and the pesticide (I), (II), or any agriculturally acceptable salt thereof in the formulated pesticidal composition. In this method, the percent insect control of the formulated pesticidal composition as observed in the study was compared to the “expected” percent control (E) as calculated by equation (1) (hereinafter “Colby's equation”) below: [formula] where X is the percentage of control with the first pesticide at a given rate (p), Y is the percentage of control with the second pesticide at a given rate (q), and E is the expected control by the first and second pesticide at a rate of p+q. […] A pesticidal composition was prepared by thoroughly mixing about 0.04 weight % of compound I with about 0.00125 weight % of spinetoram. The active compounds were formulated in a 10% acetone solution with 0.025% non-ionic surfactant, TWEEN® 20. Bioassays were performed for each different active solution. Bean pieces (about one inch-long) were used for the tests. Four bean pieces were placed in each tested active solution and left there for 10 minutes. Bean pieces were taken out of the active solution, and each piece was placed in a well in a 32-well tray and allowed to air dry. Three third-instar nymphs of Western plant bug (Lygus bug), Lygus hesperus (Knight), were infested into each well. The percent control of the pesticidal composition against Lygus bug was determined as the “Observed” action, and compared to those obtained by using about 0.04 weight % of compound I, and using about 0.00125 weight % of spinetoram alone. The “Colby's Expected Action” was calculated using Colby's equation as discussed previously. A pesticidal composition was prepared by thoroughly mixing about 0.04 weight % of compound I with about 0.005 weight % of spinetoram. The bioassays were performed wherein different active compounds were tested against Western plant bug (Lygus bug), Lygus hesperus (Knight), using the procedure described in example 4A.

[2] = tested on: diamondback moth, Plutella xylostella; experiment: Track-sprayed cabbage plant bioassay against diamondback moth, synergy by Colby's equation; conditions: Spinetoram alone, dose rate 0.0003125 weight %
Text: The method described in Colby S. R., “Calculating Synergistic and Antagonistic Responses of Herbicide Combinations,” Weeds, 1967, 15, 20-22 was used to determine an existence of synergic effect between the nAChR allosteric activator compound and the pesticide (I), (II), or any agriculturally acceptable salt thereof in the formulated pesticidal composition. In this method, the percent insect control of the formulated pesticidal composition as observed in the study was compared to the “expected” percent control (E) as calculated by equation (1) (hereinafter “Colby's equation”) below: [formula] where X is the percentage of control with the first pesticide at a given rate (p), Y is the percentage of control with the second pesticide at a given rate (q), and E is the expected control by the first and second pesticide at a rate of p+q. […] Bioassays were performed for different active compounds. Cabbage plants with about two to three new-growth-true leaf stage were treated with different active compounds using a track sprayer at a volume of 400 L/Ha. Three second instar diamondback moth, Plutella xylostella, were infested onto each leaf disc. […] The “Colby's Expected Action” was calculated using Colby's equation as discussed previously.

[3] = tested on: South American brown stink bug, Euschistus heros; experiment: Treated bean piece bioassay against South American brown stink bug, synergy by Colby's equation; conditions: Spinetoram alone, dose rate 0.0000039 weight %
Text: The method described in Colby S. R., “Calculating Synergistic and Antagonistic Responses of Herbicide Combinations,” Weeds, 1967, 15, 20-22 was used to determine an existence of synergic effect between the nAChR allosteric activator compound and the pesticide (I), (II), or any agriculturally acceptable salt thereof in the formulated pesticidal composition. In this method, the percent insect control of the formulated pesticidal composition as observed in the study was compared to the “expected” percent control (E) as calculated by equation (1) (hereinafter “Colby's equation”) below: [formula] where X is the percentage of control with the first pesticide at a given rate (p), Y is the percentage of control with the second pesticide at a given rate (q), and E is the expected control by the first and second pesticide at a rate of p+q. […] The percent control of the pesticidal composition against South American brown stink bug, Euschistus heros, was determined as the “Observed” action, and compared to those obtained by using about 0.04 weight % of compound I, and using about 0.0000039 weight % of spinetoram alone. The “Colby's Expected Action” was calculated using Colby's equation as discussed previously.

[4] = tested on: cotton aphid, Aphis gossypii (Glover); experiment: Track-sprayed cotton plant bioassay against cotton aphid, synergy by Colby's equation; conditions: Spinetoram alone, dose rate 0.005 weight %
Text: The method described in Colby S. R., “Calculating Synergistic and Antagonistic Responses of Herbicide Combinations,” Weeds, 1967, 15, 20-22 was used to determine an existence of synergic effect between the nAChR allosteric activator compound and the pesticide (I), (II), or any agriculturally acceptable salt thereof in the formulated pesticidal composition. In this method, the percent insect control of the formulated pesticidal composition as observed in the study was compared to the “expected” percent control (E) as calculated by equation (1) (hereinafter “Colby's equation”) below: [formula] where X is the percentage of control with the first pesticide at a given rate (p), Y is the percentage of control with the second pesticide at a given rate (q), and E is the expected control by the first and second pesticide at a rate of p+q. […] The percent control of the pesticidal composition against cotton aphid, Aphis gossypii (Glover), was determined as the “Observed” action, and compared to those obtained by using about 0.0020 weight % of compound II, and using about 0.005 weight % of spinetoram alone. The “Colby's Expected Action” was calculated using Colby's equation as discussed previously.

| Molecule | % Control Three Days After Treatment ([1]; Example 8A, Compound I alone, dose rate 0.04 weight %) | % Control Three Days After Treatment ([1]; Example 8B, Compound I alone, dose rate 0.04 weight %) [%] | % Control Three Days After Treatment ([1]; Example 8B, Compound I alone, dose rate 0.04 weight %, listed as compound I) | % Control Three Days After Treatment [2] [%] | % Control Three Days After Treatment ([1]; Example 8A, Spinetoram alone, dose rate 0.00125 weight %) [%] | % Control Three Days After Treatment ([1]; Example 8A, Spinetoram alone, dose rate 0.00125 weight %, listed as spinetoram) | % Control Three Days After Treatment ([1]; Example 8B, Spinetoram alone, dose rate 0.005 weight %) [%] | % Control Three Days After Treatment ([1]; Example 8B, Spinetoram alone, dose rate 0.005 weight %, listed as spinetoram) | % Control Four Days After Treatment [3] [%] | % Control Three Days After Treatment [4] [%] |
| --- | --- | --- | --- | --- | --- | --- | --- | --- | --- | --- |
| CCN(C(=O)CCSCCC(F)(F)F)c1cn(-c2cccnc2)nc1Cl [Compound I, N-(3-chloro-1-(pyridin-3-yl)-1H-pyrazol-4-yl)-N-ethyl-3-((3,3,3-trifluoropropyl)thio)propanamide] | no control | 0 | no control | – | – | – | – | – | – | – |
| Spinetoram | – | – | – | 54.17 | 0 | no control | 0 | no control | 25 | 2 |
